# Where two headings read alike, the source gives them in different places.
# Experiments:
# [1] = test system: Akt phosphorylation induced by IGF-1R; test: Western blot analysis of Akt phosphorylation induced by IGF-1 in HT-29 cells; type: cell-based, Human; conditions: for Levels of phosphorylated AKT in treated cells (pAKT/actin): HT-29 cells, IGF-1; for p-AKT relative to levels with 0.1 nM compound: Table B2 lower part; for Normalized phosphorylated AKT (relative to actin) levels relative to 0.1 nM compound treatment: Table B2 upper part; for pAKT relative to 0.1 nM compound: derivatives of Cpd. No. 8b
# Method in brief: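 HT-29 cells grown 24 h in DME/F12 with 10% FBS, serum-starved 24 h, then exposed 2 h to compound at 0.1, 1, 10 or 100; controls received DMSO or 10 ng/mL IGF-1. Lysate soluble fractions quantified by BCA before western blotting for phospho-Akt.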
# IGF-1R = target: T1, IGF-1R (Homo sapiens, UniProt P08069); test: In vitro IGF-1R enzymatic assay (ADP-Glo kinase assay); type: biochemical; conditions: activated IGF-1R
# T1 construct: purchased Millipore 14-802
# Method: (§1) IC50 values of the compounds of the invention against IGF-1R and IR were measured in vitro using an ADP-Glo kinase assay Kit (Promega). […] Kinase reactions in both assays were conducted at 30° C. for 20 min with increasing concentrations of compounds of the invention.
# Additional compounds of the invention were screened against activated IGF-1R.
# IR = target: T2, IR (Homo sapiens, UniProt P06213); test: In vitro IR enzymatic assay (ADP-Glo kinase assay); type: biochemical; conditions: activated IR; for inhibition at 0.03 µM: 30 nM
# T2 construct: purchased Millipore 14-803
# Method: as §1
# Additional compounds of the invention were screened against activated IR.
# AXL = target: T3, AXL (Homo sapiens, UniProt P30530); test: Caliper kinase assay: AXL; conditions: 0.01 μM
# T3 sequence (P30530 26-894): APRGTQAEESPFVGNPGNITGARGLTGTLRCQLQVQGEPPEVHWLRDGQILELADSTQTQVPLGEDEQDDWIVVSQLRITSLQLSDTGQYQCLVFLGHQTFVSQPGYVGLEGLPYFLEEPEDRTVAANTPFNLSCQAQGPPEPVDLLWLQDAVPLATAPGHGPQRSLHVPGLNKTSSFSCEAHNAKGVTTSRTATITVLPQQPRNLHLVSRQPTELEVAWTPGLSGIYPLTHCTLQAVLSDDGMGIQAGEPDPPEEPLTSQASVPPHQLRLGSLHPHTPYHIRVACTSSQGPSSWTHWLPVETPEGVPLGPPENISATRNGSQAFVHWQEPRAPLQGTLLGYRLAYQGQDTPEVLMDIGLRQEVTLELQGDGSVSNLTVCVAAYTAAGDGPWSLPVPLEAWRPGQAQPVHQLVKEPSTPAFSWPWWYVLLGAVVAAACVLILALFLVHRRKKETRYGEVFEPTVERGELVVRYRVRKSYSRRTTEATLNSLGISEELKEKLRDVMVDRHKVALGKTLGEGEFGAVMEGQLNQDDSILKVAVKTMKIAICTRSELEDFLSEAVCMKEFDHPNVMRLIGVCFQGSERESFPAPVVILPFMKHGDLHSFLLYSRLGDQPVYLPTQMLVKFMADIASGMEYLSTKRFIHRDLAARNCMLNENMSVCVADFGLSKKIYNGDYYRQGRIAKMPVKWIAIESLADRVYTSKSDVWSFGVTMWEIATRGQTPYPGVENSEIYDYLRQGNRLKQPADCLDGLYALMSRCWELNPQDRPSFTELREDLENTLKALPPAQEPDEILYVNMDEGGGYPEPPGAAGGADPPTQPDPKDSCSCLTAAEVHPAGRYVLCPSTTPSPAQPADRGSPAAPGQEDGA
# Method: (§6) The compound was tested at concentrations of 1.0×10^−8 and 1.0×10^−9 M in the RapidKinase192™ panel in duplicate. […] The screening was performed using the Caliper EZReader2, a 4-sipper LabChip, and ProfilerPro Kinase Selectivity Assay Kits 1 and 2. The assay measures the conversion of a fluorescent peptide substrate to a phosphorylated product. Briefly, the reaction mixture was introduced through a capillary sipper onto the microfluidic chip, where the substrate and product were electrophoretically separated and detected by laser-induced fluorescence. The time-dependent fluorescence signal indicates the extent of the reaction.
# (§7) The kinases tested were AurA, AurB, AurC, AXL, FAK2, IGF1R, InsR, Mer, MET, Trk B and Trk C.
# (§8) The assays were conducted using the Caliper LabChip 3000 and a 12-sipper LabChip as described above.
# NTRK2(TRKB) = NTRK2(TRKB) (Homo sapiens, UniProt Q16620); test: Caliper kinase assay: NTRK2 (TRKB); conditions: Trk B, 0.01 μM
# Method: as §6, §7, §8
# TRKC(NTRK3) = TRKC(NTRK3) (Homo sapiens, UniProt Q16288); test: Caliper kinase assay: TRKC (NTRK3); conditions: Trk C, 0.01 μM
# Method: as §6, §7, §8
# PYK2 = PYK2 (Homo sapiens, UniProt Q14289); test: Caliper kinase assay: PYK2 (called FAK2); conditions: FAK2, 0.01 μM
# Method: as §6, §7, §8
# MDA MB175 = test: Cell Titer-Glo cell viability: MDA MB175; type: cell-based; conditions: MDA-MB-175, any concentration tested, 3 μM maximum
# Method: (§2) Compound nos. […] This panel of cell lines includes an ER− breast carcinoma, primary breast ductal carcinoma, prostate adenocarcinoma, mammary adenocarcinoma, mammary ductal carcinoma, mammary ductal carcinoma, ovary adenocarcinoma, ER+ breast carcinoma, ER− HER2+ mammary ductal carcinoma and an ER+ mammary ductal carcinoma, respectively.
# (§3) This assay quantitates the ATP present in order to determine the number of viable cells in culture. Briefly, the compounds were incubated with the cells for 72 h, followed by cell lysis. The resulting luminescent signal is proportional to the amount of ATP present and, therefore, directly proportional to the number of cells present in culture.
# (§4) Compounds 2b, 5, 6b and 10a were tested along with derivatives in viability assays as described above by Caliper LifeSciences Systems (Hanover, Md.), in A549, HCT-15, HCT-116, MCF-7, MDA-MB-231, OVCAR3, T47D, COLO205, HT-29, BT-20, HCC1187, HL-60, MDA-MB-175, SW-620, and UACC812 cells.
# (§5) The inhibitory effects of Compound 8a were tested in two cell lines.
# UACC 812 = test: Cell Titer-Glo cell viability: UACC 812; type: cell-based; conditions: UACC812, any concentration tested, 3 μM maximum
# Method: as §2, §3, §4, §5
# [2] = average, read-out: % Inh @ 30 nM Avg
# [3] = 30 nM, average, read-out: % Inh @ 30 nM Avg
# Chain of NTRK2(TRKB) (Q16620 32-822): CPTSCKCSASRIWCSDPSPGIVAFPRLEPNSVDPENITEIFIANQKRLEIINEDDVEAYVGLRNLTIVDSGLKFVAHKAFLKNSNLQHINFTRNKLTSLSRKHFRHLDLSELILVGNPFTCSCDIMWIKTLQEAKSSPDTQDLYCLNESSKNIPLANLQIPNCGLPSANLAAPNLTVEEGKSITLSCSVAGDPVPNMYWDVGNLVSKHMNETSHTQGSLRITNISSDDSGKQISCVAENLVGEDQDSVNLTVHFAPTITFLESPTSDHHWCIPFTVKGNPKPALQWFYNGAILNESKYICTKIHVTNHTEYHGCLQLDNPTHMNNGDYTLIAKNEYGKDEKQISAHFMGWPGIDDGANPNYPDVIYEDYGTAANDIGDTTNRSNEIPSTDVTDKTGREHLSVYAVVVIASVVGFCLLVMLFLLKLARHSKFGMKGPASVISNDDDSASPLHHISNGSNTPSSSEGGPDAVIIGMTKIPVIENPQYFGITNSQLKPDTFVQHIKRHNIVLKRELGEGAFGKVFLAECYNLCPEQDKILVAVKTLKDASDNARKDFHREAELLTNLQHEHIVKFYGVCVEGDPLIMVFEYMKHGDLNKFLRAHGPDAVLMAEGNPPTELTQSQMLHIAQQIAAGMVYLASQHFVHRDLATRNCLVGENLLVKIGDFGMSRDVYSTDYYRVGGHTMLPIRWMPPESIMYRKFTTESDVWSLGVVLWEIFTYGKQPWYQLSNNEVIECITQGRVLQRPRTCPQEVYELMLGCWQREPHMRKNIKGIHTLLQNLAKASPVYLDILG
# Chain of PYK2 (Q14289 whole entry): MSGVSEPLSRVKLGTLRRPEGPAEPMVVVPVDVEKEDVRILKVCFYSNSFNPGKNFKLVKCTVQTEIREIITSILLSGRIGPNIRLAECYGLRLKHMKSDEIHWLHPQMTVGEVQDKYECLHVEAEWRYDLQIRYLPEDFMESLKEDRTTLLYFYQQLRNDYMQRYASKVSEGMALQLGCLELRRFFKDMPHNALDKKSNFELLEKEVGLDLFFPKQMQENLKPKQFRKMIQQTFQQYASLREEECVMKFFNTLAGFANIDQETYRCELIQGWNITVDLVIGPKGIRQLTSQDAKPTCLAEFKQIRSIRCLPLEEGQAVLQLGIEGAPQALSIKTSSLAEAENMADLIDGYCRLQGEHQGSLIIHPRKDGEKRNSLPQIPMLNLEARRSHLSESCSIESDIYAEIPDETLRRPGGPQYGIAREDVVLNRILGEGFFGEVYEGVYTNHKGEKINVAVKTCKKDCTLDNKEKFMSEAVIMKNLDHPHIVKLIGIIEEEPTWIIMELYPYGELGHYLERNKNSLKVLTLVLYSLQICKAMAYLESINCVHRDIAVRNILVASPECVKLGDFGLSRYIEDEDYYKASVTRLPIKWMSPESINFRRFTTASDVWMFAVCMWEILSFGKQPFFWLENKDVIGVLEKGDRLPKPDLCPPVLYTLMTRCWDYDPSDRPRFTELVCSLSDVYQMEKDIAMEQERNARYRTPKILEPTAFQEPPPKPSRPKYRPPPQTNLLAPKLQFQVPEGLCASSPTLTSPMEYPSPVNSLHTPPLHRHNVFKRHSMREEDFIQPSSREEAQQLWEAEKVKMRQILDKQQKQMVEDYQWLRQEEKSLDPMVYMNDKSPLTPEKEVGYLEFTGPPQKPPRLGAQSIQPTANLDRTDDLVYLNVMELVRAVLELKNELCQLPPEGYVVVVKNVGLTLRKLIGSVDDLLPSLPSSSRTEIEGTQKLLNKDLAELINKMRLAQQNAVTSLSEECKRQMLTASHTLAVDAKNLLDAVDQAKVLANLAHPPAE
# Chain of TRKC(NTRK3) (Q16288 32-839): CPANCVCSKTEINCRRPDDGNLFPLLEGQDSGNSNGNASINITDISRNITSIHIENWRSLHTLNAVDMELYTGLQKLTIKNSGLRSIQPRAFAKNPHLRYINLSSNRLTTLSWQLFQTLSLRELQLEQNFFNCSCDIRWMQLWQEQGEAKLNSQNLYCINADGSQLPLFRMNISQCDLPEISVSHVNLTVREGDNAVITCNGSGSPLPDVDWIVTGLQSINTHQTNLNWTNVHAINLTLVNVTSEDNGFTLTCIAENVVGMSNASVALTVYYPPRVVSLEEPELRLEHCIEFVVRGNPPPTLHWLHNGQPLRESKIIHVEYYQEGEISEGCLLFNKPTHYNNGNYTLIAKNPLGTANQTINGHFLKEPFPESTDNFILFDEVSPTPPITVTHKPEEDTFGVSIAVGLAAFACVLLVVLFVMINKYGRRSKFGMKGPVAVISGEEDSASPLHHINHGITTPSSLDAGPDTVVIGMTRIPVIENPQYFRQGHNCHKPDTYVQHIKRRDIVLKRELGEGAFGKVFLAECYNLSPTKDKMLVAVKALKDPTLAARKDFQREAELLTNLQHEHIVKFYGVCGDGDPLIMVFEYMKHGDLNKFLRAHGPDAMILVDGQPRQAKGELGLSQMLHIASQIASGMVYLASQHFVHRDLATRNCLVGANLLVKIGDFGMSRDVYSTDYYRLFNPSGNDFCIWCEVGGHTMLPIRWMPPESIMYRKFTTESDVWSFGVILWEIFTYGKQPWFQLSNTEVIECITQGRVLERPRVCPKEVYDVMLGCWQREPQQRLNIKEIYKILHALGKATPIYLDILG
# T1 sequence (P08069 31-1367): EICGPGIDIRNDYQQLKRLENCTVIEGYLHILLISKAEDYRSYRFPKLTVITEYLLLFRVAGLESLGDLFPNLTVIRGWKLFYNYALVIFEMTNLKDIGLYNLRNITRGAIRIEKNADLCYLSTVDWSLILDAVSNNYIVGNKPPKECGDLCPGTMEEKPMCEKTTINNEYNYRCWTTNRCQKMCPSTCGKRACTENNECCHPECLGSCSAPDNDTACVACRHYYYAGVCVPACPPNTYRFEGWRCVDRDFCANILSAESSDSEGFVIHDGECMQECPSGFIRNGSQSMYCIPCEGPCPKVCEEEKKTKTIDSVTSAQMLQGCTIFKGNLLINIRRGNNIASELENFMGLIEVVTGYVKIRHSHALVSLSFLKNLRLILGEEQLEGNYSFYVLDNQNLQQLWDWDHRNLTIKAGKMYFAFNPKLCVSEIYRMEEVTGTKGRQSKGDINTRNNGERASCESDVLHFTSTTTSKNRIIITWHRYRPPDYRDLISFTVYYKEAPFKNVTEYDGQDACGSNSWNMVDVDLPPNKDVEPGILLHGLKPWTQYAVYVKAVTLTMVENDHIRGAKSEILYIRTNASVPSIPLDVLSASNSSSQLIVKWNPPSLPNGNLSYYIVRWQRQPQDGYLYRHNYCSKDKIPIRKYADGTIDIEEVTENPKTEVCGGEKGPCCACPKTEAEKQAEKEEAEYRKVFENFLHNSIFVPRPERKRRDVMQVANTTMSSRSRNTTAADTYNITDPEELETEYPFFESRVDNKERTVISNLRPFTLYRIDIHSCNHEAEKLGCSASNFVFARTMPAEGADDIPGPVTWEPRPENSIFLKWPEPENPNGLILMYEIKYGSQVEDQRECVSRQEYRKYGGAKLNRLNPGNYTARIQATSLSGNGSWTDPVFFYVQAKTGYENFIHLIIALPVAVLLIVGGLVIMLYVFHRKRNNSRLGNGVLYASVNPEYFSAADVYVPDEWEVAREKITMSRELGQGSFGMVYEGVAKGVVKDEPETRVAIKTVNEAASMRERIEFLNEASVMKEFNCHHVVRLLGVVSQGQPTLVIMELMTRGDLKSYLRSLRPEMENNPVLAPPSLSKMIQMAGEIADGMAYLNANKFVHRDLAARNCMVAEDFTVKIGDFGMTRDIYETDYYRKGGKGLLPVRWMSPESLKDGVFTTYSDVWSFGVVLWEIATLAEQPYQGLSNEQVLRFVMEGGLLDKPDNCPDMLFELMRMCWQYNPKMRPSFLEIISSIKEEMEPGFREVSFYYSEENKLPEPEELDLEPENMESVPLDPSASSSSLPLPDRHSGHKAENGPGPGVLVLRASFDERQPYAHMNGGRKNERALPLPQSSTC
SMILES,Levels of phosphorylated AKT in treated cells (pAKT/actin) ([1]; 0.1 nM compound),p-AKT relative to levels with 0.1 nM compound ([1]; 0.1 nM),Normalized phosphorylated AKT (relative to actin) levels relative to 0.1 nM compound treatment ([1]; 0.1 nM),pAKT relative to 0.1 nM compound ([1]; 0.1 nM),Levels of phosphorylated AKT in treated cells (pAKT/actin) ([1]; 1 nM compound),p-AKT relative to levels with 0.1 nM compound ([1]; 1 nM),Normalized phosphorylated AKT (relative to actin) levels relative to 0.1 nM compound treatment ([1]; 1 nM),pAKT relative to 0.1 nM compound ([1]; 1 nM),Levels of phosphorylated AKT in treated cells (pAKT/actin) ([1]; 10 nM compound),p-AKT relative to levels with 0.1 nM compound ([1]; 10 nM),Normalized phosphorylated AKT (relative to actin) levels relative to 0.1 nM compound treatment ([1]; 10 nM),pAKT relative to 0.1 nM compound ([1]; 10 nM),Levels of phosphorylated AKT in treated cells (pAKT/actin) ([1]; 100 nM compound),p-AKT relative to levels with 0.1 nM compound ([1]; 100 nM),Normalized phosphorylated AKT (relative to actin) levels relative to 0.1 nM compound treatment ([1]; 100 nM),pAKT relative to 0.1 nM compound ([1]; 100 nM),inhibition of kinase (AXL),inhibition of kinase (NTRK2(TRKB)),inhibition of kinase (TRKC(NTRK3)),inhibition of kinase (PYK2),also measured
"O=C(Nc1ccc(F)nc1)C1CC(O)CN1c1nc2c(c(Nc3cc(C4CC4)[nH]n3)n1)CCC2 (racemic) [Compound 10a, (2S,4R)-1-(4-(5-cyclopropyl-1H-pyrazol-3-ylamino)-6,7-dihydro-5H-cyclopenta[d]pyrimidin-2-yl)-N-(6-fluoropyridin-3-yl)-4-hydroxypyrrolidine-2-carboxamide]",2.28,1.0,1.0,1.00,0.54,0.2,0.2,0.69,0.00,0.0,0.0,0.16,0.01,0.0,0.0,0.01,strongly inhibited,strongly inhibited,strongly inhibited,strongly inhibited,"IC50 (IGF-1R): 33 nM; % Inh @ 30 nM Avg (IGF-1R; 30 nM, average): 32%; IC50 (IR): 33 nM; inhibition at 0.03 µM (IR; [2]): 54%"
"O=C(Nc1ccc(F)nc1)C1CC(O)CN1c1nc2c(c(Nc3cc(C4CC4)[nH]n3)n1)CCC2 (racemic) [Compound 10d, 1-(4-(5-cyclopropyl-1H-pyrazol-3-ylamino)-6,7-dihydro-5H-cyclopenta[d]pyrimidin-2-yl)-N-(6-fluoropyridin-3-yl)-4-hydroxypyrrolidine-2-carboxamide]",,,,,,,,0.84,,,,0.23,,,,0.01,strongly inhibited,strongly inhibited,strongly inhibited,strongly inhibited,
"O=C(Nc1cnccn1)C1CCCN1c1nc2c(c(Nc3cc(C4CC4)[nH]n3)n1)CCC2 (single isomer, unassigned) [Compound 6b, 1-(4-(3-cyclopropyl-1H-pyrazol-5-ylamino)-6,7-dihydro-5H-cyclopenta[d]pyrimidin-2-yl)-N-(pyrazin-2-yl)pyrrolidine-2-carboxamide]",0.87,1.0,1.0,1.00,0.18,0.2,0.2,0.39,0.00,0.0,,0.02,0.00,0.0,0.0,0.01,strongly inhibited,strongly inhibited,strongly inhibited,strongly inhibited,"inhibition at 0.03 µM (IGF-1R; 30 nM, N1, read-out: % Inh @ 30 nM (N1)): 93%; inhibition at 0.03 µM (IGF-1R; 30 nM, N2, read-out: % Inh @ 30 nM (N2)): 95%; inhibition at 0.03 µM (IGF-1R; [3]): 94%; inhibition at 0.03 µM (IR; N1, read-out: % Inh @ 30 nM (N1)): 92%; inhibition at 0.03 µM (IR; N2, read-out: % Inh @ 30 nM (N2)): 91%; inhibition at 0.03 µM (IR; [2]): 92%"
"CC(C)c1cc(Nc2nc(N3CCC[C@H]3C(=O)Nc3ccc(F)nc3)nc3c2CCC3)n[nH]1 (single isomer, unassigned) [Compound 8a]",1.93,1.0,1.0,,2.27,1.2,1.2,,1.17,0.6,0.6,,1.78,0.9,0.9,,,,,,inhibition at 0.03 µM (IGF-1R; [3]): 0%; proliferation as compared to the untreated control (MDA MB175): ≥ 68%; proliferation as compared to the untreated control (UACC 812): ≥ 68%

# Source: patent US9499519B2, “Fused pyrimidine compounds and use thereof” (Medivation Technologies, Inc., priority 2012, dated 2016)
